# Experimental data published in US4304715A, “Enkephalin analogues” (priority 1979, dated 1981).
# Experiments:
# rat brain membranes = assay: Radio receptor assay (R.R.A.), an opiate binding assay: displacement of tritiated naloxone from rat brain membranes; conditions: based on concentration required to displace 50% of (3H)naloxone (1nM) from rat brain membranes; pH 7.4, 15 minutes, bacitracin; Met Enkephalin = 100%
# mouse vas deferens = conditions: inhibition of electrically induced contractions, Met Enkephalin = 100%
# Experimental: (ii) M.V.D. stands for mouse vas deferens
# were performed as described in the literature
smiles,measurement,setting,value
"CSCC[C@H](NC(=O)[C@H](Cc1ccccc1)NC(=O)CNC(=O)CCCC(N)Cc1ccc(O)cc1)C(N)=O (stereo partly drawn) [Analogue H211, 5-Amino-6-(4'-hydroxyphenyl)-hexanoyl-glycyl-L-phenylalanyl-L-methionine amide]",Activity Relative to Met Enkephalin R.R.A.,rat brain membranes,9%
same,Activity Relative to Met Enkephalin M.V.D.,mouse vas deferens,0.9%
